This series is described as follows: Safe solvent solubility test of compound (PGMEA). The conditions noted are these: 23° C., ultrasonic 30 minutes, visual. The format is physicochemical. On the procedure:
(1) Safe Solvent Solubility Test of Compound
The solubility of the compound in PGMEA was evaluated according to the following criteria using the amount dissolved in each solvent. The amount of dissolution was measured at 23° C. by precisely weighing the compound into a test tube, adding a target solvent so as to attain a predetermined concentration, applying ultrasonic waves for 30 minutes in an ultrasonic cleaner, and then visually observing the subsequent state of the fluid.
A: 5.0% by mass≤Amount of dissolution
B: 2.0% by mass≤Amount of dissolution<5.0% by mass
C: Amount of dissolution<2.0% by mass

Molecules are shown by their SMILES.

With `CC(C)(COc1c(I)cc(N2CC=CC2)cc1I)COc1c(I)cc(N2CC=CC2)cc1I` [BMI-1], the “Safety solvent solubility PGMEA” value is on record as “A (5.0% by mass≤Amount of dissolution)”.
The entry for `Cc1cc(C(c2ccc(I)cc2)c2cc(C)c(O)c(C)c2)cc(C)c1O` [BisB-1] is “A (5.0% by mass≤Amount of dissolution)”; for `Oc1ccc(-c2ccc(O)c(C(c3cc(-c4ccc(O)cc4)ccc3O)c3cc(I)cc(I)c3O)c2)cc1` [BisB-2] it is “A (5.0% by mass≤Amount of dissolution)”.
The entry for `Oc1ccc2c3c(ccc2c1I)Oc1ccc2c(I)c(O)ccc2c1C3c1ccc(-c2ccccc2)cc1` [XBisN-3] is “A (5.0% by mass≤Amount of dissolution)”.
The entry for `Oc1ccc2c3c(ccc2c1)Oc1ccc2cc(O)ccc2c1C3c1ccc(-c2ccccc2)cc1` [XBisN-C1, reference compound] is “B (2.0% by mass≤Amount of dissolution<5.0% by mass)”.
`Oc1ccc2c3c(ccc2c1)Oc1ccc2cc(O)ccc2c1C3c1cccc(I)c1` [XbisN-1]: the “Safety solvent solubility PGMEA” value is “B (2.0% by mass≤Amount of dissolution<5.0% by mass)”.

(Values after patent US20230096137A1, “COMPOSITION FOR LITHOGRAPHY AND PATTERN FORMATION METHOD” (Mitsubishi Gas Chemical Company, Inc., priority 2020, published 2023).)
